Experiments:
[1] = tested on: HCT-116 CRC cells; assay: Western blot analysis of HCT-116 CRC cells; assay type: cell-based, human
Procedure: Recombinant Human TNF-α (Cat #300-01A, PeproTech, Rocky Hill, NJ, USA) and Recombinant Human IFN-γ (Cat #300-02, Peprotech, Rocky Hill, NJ, USA) were purchased for use in western blot analysis while rhTRAIL was generated in-house. Kim et al., J Biol Chem., 279(38):40044-52 (2004).
Cells were plated in a 6-well plate and incubated overnight before the spent media was replaced with drugged media. Drug treatment lasted for indicated durations. Protein was extracted using radioimmunoprecipitation (RIPA) assay buffer (Cat #R0278, Sigma-Aldrich, St. Louis, MO) containing cOmplete™, Mini, EDTA-free Protease Inhibitor Cocktail (Cat #4693159001, Roche, Basel, Switzerland) from sub-confluent cells. Denaturing sample buffer was added, samples were boiled at 95 degrees for 10 minutes, and an equal amount of protein lysate was electrophoresed through NuPAGE™ 4 to 12%, Bis-Tris, 1.5 mm, Mini Protein Gels (Invitrogen, Waltham, MA) then transferred to PVDF membranes. The PVDF membrane was blocked with 5% non-fat milk (Sigma-Aldrich, St. Louis, MO) in 1×TTBS. Primary antibodies were incubated with the transferred PVDF membrane in blocking buffer at 4° C. overnight. Secondary antibodies used included Goat anti-Rabbit IgG (H+L) Secondary Antibody, HRP (Cat #31460, Invitrogen, Waltham, MA), and Goat anti-Mouse IgG (H+L) Secondary Antibody, HRP (Cat #31430, Invitrogen, Waltham, MA). Signal was detected using Pierce™ ECL Western Blotting Substrate (Cat #32106, Thermo Scientific, Waltham, MA, USA) and a Syngene Imaging System (RRID: SCR_015770).

[2] = tested on: CD45+ immune cell segments of tumor biopsies; assay: GeoMx Digital Spatial Profiling of patient tumor biopsies; assay type: in vivo, human; conditions: post- vs pre-treatment
Description: An Agilent technologies hybridization oven was used for baking tissue onto slides (Agilent, Santa Clara, CA, USA). A NanoString GeoMx® Digital Spatial Profiler (DSP) instrument (NanoString, Seattle, WA, USA) was used to scan slides, identify regions of interest (ROIs), and collect photocleavable barcodes according to manufacturer instructions. A custom panel was designed to include the following proteins: Ms IgG1, Ms IgG2a, Rb IgG, GAPDH, Histone H3, S6, Beta-2-microglobulin, CD31, CD45, Ki-67, ARG1, CD11b, CD11c, CD14, CD163, CD39, CD40, CD68, HLA-DR, GZMB, CD20, CD3, CD34, CD4, CD56, CD66b, CD8, Foxp3, Fibronectin, 4-1BB, B7-H3, CTLA4, GITR, IDO1, LAG3, OX40L, STING, Tim-3, VISTA, Bcl-2, ER-α, EpCAM, Her2, MART1, NY-ESO-1, PR, PTEN, PanCk, SMA, CD127, CD25, CD27, CD44, CD45RO, CD80, ICOS, PD-1, PD-L1, and PD-L2. An Eppendorf MasterCycler Gradient Thermal Cycler was used to generate the Illumina sequencing libraries from the photocleaved tags. (Eppendorf, Hamburg, Germany). An Agilent Fragment Analyzer (RRID: SCR_019417) was used for library size distribution analysis with a high-sensitivity NGS Fragment Kit (Cat #DNF-474-0500, Agilent, Santa Clara, CA, USA). qPCR for quantification was run using an Illumina-compatible KAPA Library Quantification Kits (ROX Low) (cat #KK4873) on an Applied Biosystems ViiA 7 Real-Time qPCR/PCR Thermal Cycler System (Applied Biosystems, San Francisco, CA, USA) and was analyzed using QuantStudio software (RRID: SCR_018712). Sequencing was performed using a NextSeq 500/550 High Output Kit v2.5 (75 Cycles) kit (cat #20024906) on an Illumina Sequencing NextSeq 550 System ([RRID: SCR_016381], Illumina, San Diego, CA, USA). The initial annotated dataset went through quality control (QC) to check if housekeeper genes and background (isotype) control molecules were themselves correlated with the predictors of interest. Every ROT was tested for raw sequencing reads (segments with <1000 raw reads were removed), % sequencing saturation (defined as [1-deduplicated reads/aligned reads]%, segments below ~50% were not analyzed), and nuclei count per segment (>100 nuclei per segment is generally recommended). Both immunoglobulins (IgGs) and housekeeper genes were highly correlated with one another. Signal to noise (SNR) ratio was calculated using background probes and all probes were detected above the background in at least one ROI. Finally, data were normalized based on background IgG expression and all normalization factors were well distributed. Data analysis and visualization were generated using R ([RRID: SCR_001905], R Development Core Team, 2020). Archival tumor specimens and peripheral blood samples were collected from patients enrolled in the Phase I study of Elraglusib (9-ING-41), a small molecule selective glycogen synthase kinase-3 beta (GSK-3b) inhibitor, as monotherapy or combined with cytotoxic regimens in patients with relapsed or refractory hematologic malignancies or solid tumors (Clinicaltrials.gov NCT03678883) who received treatment at the Lifespan Cancer Institute (Providence, RI, USA). The study was conducted in accordance with the Declaration of Helsinki and the International Conference on Harmonization Good Clinical Practice guidelines. The study protocol was approved by the Institutional Review Board (IRB) of Rhode Island Hospital under protocol number 1324888-120. The patients also participated in a Lifespan Cancer Institute research protocol designed to investigate molecular and genetic features of tumors and mechanisms of resistance (Rhode Island Hospital IRB protocol number 449060-38). All patients provided written informed consent.

[3] = especially at later timepoints (48, 72 hr)
[4] = tumor-infiltrating CD45+ segments, p=0.012
[5] = tumor-infiltrating CD45+ segments, p=1.6E-3
[6] = tumor-infiltrating CD45+ segments, p=3.1E-5

In the case of `Cn1cc(C2=C(c3coc4ccc(F)cc34)C(=O)NC2=O)c2cc3c(cc21)OCO3` [elraglusib, 3-(5-fluorobenzofuran-3-yl)-4-(5-methyl-5H-[1,3]dioxolo[4,5-f]indol-7-yl)-1H-pyrrole-2,5-dione], the “NF-κB p65 expression” value ([1]; as the 0-72 hour time-course progressed) is reported as “decreased expression”, the PD-L1 expression ([1]; as the treatment duration increased (0-72 hours)) is reported as “increases in PD-L1 expression” and the Mcl-1 protein expression ([1]; by the 24-hour timepoint) is reported as “marked decreases in protein expression”. The Bcl-2 protein expression [1, 3] was “decreases in protein expression”, the Survivin protein expression [1, 3] was “decreases in protein expression” and the “cleaved PARP (cPARP)” value ([1]; low dose as in co-culture assays, until the 48-hour timepoint of 72-hour timecourse) was “little to no cleaved PARP”. For the same compound, the CD40 protein expression ([2]; CD45+ regions, all samples, p=0.020) was “decreased protein expression”, the CD11c protein expression ([2]; CD45+ regions, all samples, p=0.022) was “decreased protein expression” and the PD-L2 protein expression ([2]; CD45+ regions, all samples, p=2.0E-9) was “decreased protein expression”. The VISTA protein expression ([2]; CD45+ regions, all samples, p=2.0E-24) was “decreased protein expression”, the PD-L1 protein expression ([2]; CD45+ regions, all samples, p=3.2E-13) was “decreased protein expression” and the CD68 protein expression ([2]; CD45+ regions, all samples, p=3.8E-4) was “decreased protein expression”. For the same compound, the IDO1 protein expression ([2]; CD45+ regions, all samples, p=4.8E-6) was “decreased protein expression”, the LAG3 protein expression ([2]; CD45+ regions, all samples, p=5.1E-4) was “decreased protein expression” and the CD80 protein expression ([2]; CD45+ regions, all samples, p=5.4E-6) was “decreased protein expression”. For the same compound, the PD-1 protein expression ([2]; CD45+ regions, all samples, p=5.6E-9) was “decreased protein expression”, the CD11b protein expression ([2]; CD45+ regions, all samples, p=6.7E-3) was “decreased protein expression” and the CD66b protein expression ([2]; CD45+ regions, all samples, p=7.5E-15) was “decreased protein expression”. The B7-H3 protein expression [2, 4] was “higher protein expression”, the CD127 protein expression [2, 4] was “higher protein expression” and the GITR protein expression ([2]; tumor-infiltrating CD45+ segments, p=0.021) was “lower protein expression”. The CD45RO protein expression ([2]; tumor-infiltrating CD45+ segments, p=1.1E-4) was “lower protein expression”, the PD-L1 protein expression ([2]; tumor-infiltrating CD45+ segments, p=1.1E-6) was “lower protein expression” and the CD66b protein expression ([2]; tumor-infiltrating CD45+ segments, p=1.4E-13) was “lower protein expression”. The PTEN protein expression ([2]; tumor-infiltrating CD45+ segments, p=1.5E-11) was “lower protein expression”, the OX40L protein expression [2, 5] was “higher protein expression” and the PD-1 protein expression [2, 5] was “lower protein expression”. For the same compound, the VISTA protein expression ([2]; tumor-infiltrating CD45+ segments, p=1.6E-14) was “lower protein expression”, the CD80 protein expression ([2]; tumor-infiltrating CD45+ segments, p=2.4E-3) was “lower protein expression” and the B2M protein expression ([2]; tumor-infiltrating CD45+ segments, p=2.5E-6) was “lower protein expression”. The Ki-67 protein expression ([2]; tumor-infiltrating CD45+ segments, p=2.7E-4) was “lower protein expression”, the CTLA4 protein expression [2, 6] was “higher protein expression” and the HLA-DR protein expression [2, 6] was “lower protein expression”. The CD44 protein expression ([2]; tumor-infiltrating CD45+ segments, p=3.1E-7) was “lower protein expression”, the CD34 protein expression ([2]; tumor-infiltrating CD45+ segments, p=3.3E-9) was “lower protein expression” and the CD68 protein expression ([2]; tumor-infiltrating CD45+ segments, p=5.8E-4) was “lower protein expression”. The IDO1 protein expression ([2]; tumor-infiltrating CD45+ segments, p=6.6E-4) was “lower protein expression”, the CD56 protein expression ([2]; tumor-infiltrating CD45+ segments, p=6.9E-3) was “lower protein expression” and the PD-L2 protein expression ([2]; tumor-infiltrating CD45+ segments, p=7.6E-4) was “lower protein expression”. For the same compound, the ARG1 protein expression ([2]; tumor-infiltrating CD45+ segments, p=7.6E-5) was “lower protein expression” and the CD11c protein expression ([2]; tumor-infiltrating CD45+ segments, p=9.5E-3) was “lower protein expression”.
